Results on 32 molecules are retold here after EPA's ToxValDB 9.5.

The subject of this series is Rattus norvegicus.
Where [1] appears, read: subchronic, duration: 90 days, oral, diet, M/F, Sprague-Dawley, no effects.
The mark [2] stands for this setting: subchronic, duration: 90 days, oral, diet, M/F, no effects.
Where [3] appears, read: reproduction developmental, histopathology: nonneoplastic.

As for `O=C([O-])c1cc(C(=O)[O-])c2c(n1)C(=O)C(=O)c1cc(C(=O)O)[nH]c1-2.[Na+].[Na+]`, for the setting “subchronic, duration: 90 days, oral, gavage, M/F, Crj:CD”, the NOAEL was found to be 100 mg/kg-day.

Under “subchronic, duration: 90 days, oral, M/F, Sprague-Dawley, no effects”, `CC(C)(CO)C1OCC2(CO1)COC(C(C)(C)CO)OC2` (centres undefined) displayed an NOAEL of 2000 mg/kg-day.

On to `CC(C)CC(=O)N1CCC[C@H](COc2cccc3c2C(N)=NS(=O)(=O)N3)C1`, for which the NOAEL reads like this: (reproduction developmental, duration: 15 days, oral, gavage, no effects) 1000 mg/kg-day; (subchronic, duration: 13 weeks, oral, diet, M/F, no effects) 100 mg/kg-day.

`CCCNC(=O)C(C)(C)COc1cccc2c1C(N)=NS(=O)(=O)N2`: the NOAEL under setting [1] amounted to 20 mg/kg-day.

For `CC(=O)c1cccc2ccccc12` [1'-Acetonaphthone], the NOAEL under setting [2] stood at 33 mg/kg-day.

For the setting “chronic, duration: 2 years”, `CC(O)CO` (centres undefined) [1,2-Propylene glycol] showed an NOEL of 2500 mg/kg-day.

`OC1CSC(O)CS1` (centres undefined) [1,4-Dithiane-2,5-diol]: the NOAEL under setting [1] is 3.14 mg/kg-day.

Turning to `SCCCCCCCCS` [1,8-Octanedithiol], the NOAEL under setting [1] was determined as 0.705 mg/kg-day.

Consider `CC(=O)CSCc1ccco1` [1-(2-Furfurylthio)propanone], for which, under setting [2], the NOAEL amounted to 3.76 mg/kg-day.

In the case of `C=C(C)c1ccc(C)cc1` [1-Methyl-4-(prop-1-en-2-yl)benzene], the NOAEL (subchronic, duration: 90 days) came out at 0.625 mg/kg-day.

As for `Clc1cc2c(cc1Cl)Oc1cc(Cl)c(Cl)cc1O2` [2,3,7,8-Tetrachlorodibenzo-p-dioxin], the LOAEL (reproduction developmental, injection, subcutaneous, Wistar, behavior) came to 2.5e-05 mg/kg-day.

The molecule `CC(S)C(C)S` (centres undefined) [2,3-Butanedithiol] came in with a no observed adverse effect level (NOAEL) under setting [1] of 0.703 mg/kg-day.

Under “subchronic, duration: 90 days, clinical chemistry”, `Clc1ccc(-c2ccc(Cl)cc2Cl)cc1` [2,4,4'-Trichlorobiphenyl] registered an NOAEL of 0.4 mg/kg-day.

Regarding `CCC(C)(C)c1ccc(O)c(C(C)(C)CC)c1` [2,4-Di-tert-pentylphenol], under “subchronic, duration: 90 days, oral, M/F, Wistar, histopathology: nonneoplastic”, the NOAEL was 5 mg/kg-day.

In the case of `CC(C)=CCCC(C)C=O` (centres undefined) [2,6-Dimethylhept-5-enal], the NOAEL (subchronic, duration: 3 months, oral, diet, M/F, organ weight) was 37 mg/kg-day.

With `CC(C)=CC(=O)SC(C)C` [2-Butenethioic acid, 3-methyl-, S-(1-methylethyl) ester], the NOAEL (subchronic, duration: 90 days, oral) amounted to 6.63 mg/kg-day.

Under setting [1], `CCC1SSC(CC)S1` (centres undefined) [3,5-Diethyl-1,2,4-trithiolane] gave an NOAEL of 0.2 mg/kg-day.

`CCOC(=O)c1ccoc1-c1ccccc1` [3-Furancarboxylic acid, 2-phenyl-, ethyl ester] came in with an NOEL (subchronic, duration: 90 days, oral, diet) of 13 mg/kg-day.

`CC1=C(O)C(=O)C(C)O1` (centres undefined) [4-Hydroxy-2,5-dimethyl-3(2H)furanone]: the NOAEL was found to be 200 mg/kg-day (chronic, duration: 2 years, M/F, body weight) and 200 mg/kg-day (chronic, duration: 2 years, oral, diet, M/F, Sprague-Dawley, body weight).

Regarding `Cc1ccc(C(=O)c2ccccc2)cc1` [4-Methylbenzophenone], the LOAEL under setting [3] was 6 mg/kg-day.

The molecule `CC1CCC2(O1)C(C)(C)CCCC2(C)O` (centres undefined) [6-Hydroxydihydrotheaspirane] showed an NOAEL (subchronic, duration: 90 days, oral, diet, M/F, Crj:CD, food efficiency) of 52 mg/kg-day.

Under setting [2], `Cc1ccc2ncccc2c1` [6-Methylquinoline] had an NOAEL of 2.2 mg/kg-day.

Where the note is “subchronic, duration: 90 days, oral, diet, M/F, Sprague-Dawley, histopathology: nonneoplastic”, `CCCCC/C=C/C=C/C(=O)NCC(C)C` [(E,E)-N-(2-Methylpropyl)-2,4-decadienamide] showed a no observed adverse effect level (NOAEL) of 10 mg/kg-day.

The molecule `CC(C)=O` [Acetone] returned an NOAEL (subchronic, duration: 90 days, oral, drinking water) of 900 mg/kg-day.

In the case of `O=S(=O)([O-])c1ccc2c(N=Nc3ccc(S(=O)(=O)[O-])c4ccccc34)c(O)c(S(=O)(=O)[O-])cc2c1.[Na+].[Na+].[Na+]` [Amaranth], the NOAEL (developmental, duration: 19 days, oral, gavage, F, Osborne-Mendel, development) came to 15 mg/kg-day.

The molecule `O=C(c1ccccc1)c1ccccc1` [Benzophenone] came in with an LOAEL under setting [3] of 6 mg/kg-day.

With `OCc1ccccc1` [Benzyl alcohol], the NOAEL (chronic, duration: 103 weeks, oral, gavage, M/F, no effects) turned out to be 400 mg/kg-day.

In turn, `CCCCOC(=O)c1ccccc1C(=O)OCc1ccccc1` [Benzyl butyl phthalate] registered an NOAEL (developmental, oral, diet, M/F, development) of 50 mg/kg-day.

For `Cc1occc1SSSSc1ccoc1C` [Bis(2-methyl-3-furyl) tetrasulfide], for the setting “subchronic, duration: 90 days, oral, diet, M/F, Wistar, no effects”, the NOAEL is 0.56 mg/kg-day.

As to `O=C([O-])c1[nH]n(-c2ccc(S(=O)(=O)[O-])cc2)c(=O)c1N=Nc1ccc(S(=O)(=O)[O-])cc1.[Na+].[Na+].[Na+]` [C.I. Acid Yellow 23], the NOAEL (chronic, M, body weight) is 984 mg/kg-day.

On to `CCCCCCCCCCCCCCCCCC(=O)OC(C)C(=O)OC(C)C(=O)[O-].CCCCCCCCCCCCCCCCCC(=O)OC(C)C(=O)OC(C)C(=O)[O-].[Ca+2]` (centres undefined) [Calcium stearoyl-2-lactylate], for which the NOAEL (chronic, duration: 1 years, M/F, Wistar, no effects) amounted to 2200 mg/kg-day.

In turn, `[Cr+3]` [Chromium (III)] showed an NOAEL (chronic, duration: 2 years, oral, diet, M/F, Fischer 344, histopathology: neoplastic) of 286 mg/kg-day.

As usually defined, the NOAEL is the highest tested level that showed no adverse finding. What is called LOAEL is the lowest dose or exposure tested at which an adverse effect was seen.
